Measured values published in patent publication US20050152842A1, “Poly (L-glutamic acid) paramagnetic material complex and use as a biodegradable MRI contrast agent” (priority 2003, published 2005).

How the values were obtained:
[1] = MRI studies of vascular enhancement and intravascular retention in mice; type: in vivo; conditions: dose of 0.1 mmol/kg, intravenous
Method: For MRI studies using complexes prepared as described in the earlier examples, mice were anesthetized with 1-2% isoflurane in a 1 L/min O2 flow and place prone within a custom sled. A custom catheter made from 2 Fr silicon tubing and a 27 gauge needle was inserted in the tail vein of the mouse. Gd-DTPA ([…]) or PG-Hex-DTPA-Gd (0.004 mmol Gd/ml, 0.02 mmol Gd/kg) was injected through the catheter and the catheter flushed with normal saline. Two-dimensional coronal section spin-echo images were obtained before and at 2 hours and 24 hours after contrast agent injection using a 2.5 cm quadrature birdcage coil on a 1.5 T Sigma LX MR scanner (GE Medical Systems, WI). Six 1.5 mm contiguous sections were obtained using a 6 cm field-of-view, a 256×192 acquisition matrix and 4 averages. Similar studies were performed with PEG/PG-Hex-DTPA-Gd.
A fast spoiled gradient-echo sequence was used to obtain the data from 8 anatomic sections with 7.1 s temporal resolution. Other acquisition parameters were echo time: 1.4 ms, repetition time: 40 ms, flip angle: 35°, acquisition matrix size: 128×128. […] Such long intravascular retention times are useful for contrast-enhanced MR angiography, for assessment of microvascular volume, and for characterizing changes in permeability of highly “leaky” vasculature. Retention of the contrast in the tumor was also noted in the same time period (FIG. 6B).

[2] = 1.5 Tesla in phosphate-buffered saline; from Unger et al. 1999; cited from earlier work
[3] = target: Cathepsin B (Homo sapiens, UniProt P07858)
Method: PG-Hex-BzDTPA-Gd was dissolved in PBS buffer (pH 5) at a concentration of 5.3 mg/ml. Cathepsin B, which is able to degrade the complex, was added to the solution to a final concentration of 10 units/ml. The degradation was monitored at different time intervals using a gel permeation chromatography (GPC) system equipped with an TSK G3000PW column (TosoHaas), a Waters 515 HPLC pump, and a Viscotek E-Z^pro triple detector array. The system was eluted with PBS buffer containing 0.1% LiBr (pH 7.4) at a flow rate of 1 ml/min.

Row | Compound | Vascular enhancement 2 hours after injection [1] | Relaxivity R1 [2] | Time in which the polymer was almost completely degraded [3] | Degradation on incubation with Cathepsin B (in words) ([3]; pH 5)
1 | O=C([O-])CN(CCN(CC(=O)[O-])CC(=O)O)CCN(CC(=O)[O-])CC(=O)O.[Gd+3] [DTPA-Gd] | not detected | 4.1 mM^−1Sec^−1 |  | 
2 | poly(L-glutamic acid) [PG] |  |  | 100 min | rapidly degraded
